Assay results reported in US7544675B2, “Chemical compounds with dual activity, processes for their preparation and pharmaceutical compositions” (UCB, S.A., priority 2002, dated 2009).

Columns and labels:
PDE IV = PDE IV enzymatic activity (SPA phosphodiesterase assay, cytosolic fraction from U937 cells); assay type: biochemical; conditions: qualitative statement
Method: Cytosolic fraction from U937 cells pre-stimulated for 4 h at 37° C. with a mixture of rolipram 30 μM and salbutamol 1 μM (Torphy T. J., Zhou H. L., Cieslinski L. B., J. Pharmacol. Exp. Ther. (1992), 263 (3), 1195-1205).
Assays were performed in 100 μL of 50 mM Tris HCl buffer (pH 7.4) containing 5 mM MgCl2, 2 mM EGTA, 20 nM of [^3H]-cAMP (40-60 Ci/mmol), the cytosolic fraction of 50,000 U937 cells and the appropriate concentration of test compound (usually 10 μM) dissolved in DMSO (final assay concentration not exceeding 1%). After 30 min incubation at room temperature, 0.5 mg of SPA yttrium silicate beads are added to each sample. Radioactivity bound to the beads (5′-AMP) is determined by liquid scintillation. Non PDE IV activity and/or non specific binding of the labeled substrate to the SPA beads is defined as the residual radioactivity remaining in the presence of rolipram 32 μM (non PDE IV activity represents about 40% of total activity). PDE IV activity is determined by subtracting the non PDE TV activity from the total activity.

[1] = target: T1, human m3 muscarinic receptor (Homo sapiens, UniProt P20309); assay: Affinity for human muscarinic receptors ([3H]-NMS binding, CHO cell membranes); conditions: qualitative statement
T1 construct: expressed in transfected cells; host or cells: CHO (Chinese Hamster Ovarian) cells, crude membrane fraction
T1 sequence (P20309 whole entry): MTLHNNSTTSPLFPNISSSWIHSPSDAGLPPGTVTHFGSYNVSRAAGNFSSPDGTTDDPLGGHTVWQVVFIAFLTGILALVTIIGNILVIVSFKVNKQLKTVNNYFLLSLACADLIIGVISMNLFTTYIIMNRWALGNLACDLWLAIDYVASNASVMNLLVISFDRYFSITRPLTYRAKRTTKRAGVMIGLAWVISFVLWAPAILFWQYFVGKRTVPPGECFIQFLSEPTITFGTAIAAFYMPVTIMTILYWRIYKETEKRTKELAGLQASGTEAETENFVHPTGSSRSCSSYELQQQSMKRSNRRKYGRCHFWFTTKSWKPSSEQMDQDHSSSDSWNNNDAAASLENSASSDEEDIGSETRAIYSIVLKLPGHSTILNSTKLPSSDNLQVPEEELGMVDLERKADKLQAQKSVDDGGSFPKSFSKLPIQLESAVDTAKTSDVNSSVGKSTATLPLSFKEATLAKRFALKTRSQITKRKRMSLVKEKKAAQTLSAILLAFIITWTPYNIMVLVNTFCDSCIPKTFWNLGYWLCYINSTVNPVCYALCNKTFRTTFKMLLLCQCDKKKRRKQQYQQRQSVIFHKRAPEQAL
Method: Chinese Hamster Ovarian cells (CHO) expressing the human recombinant m1, m2, m3, m4 and m5 receptors were cultured in Ham's F12 media supplemented with 100 IU/ml of penicillin, 100 μg/ml of streptomycin, 400 μg/ml of geneticin and 5% of fetal bovine serum. Cell cultures were maintained in a humidified incubator at 37° C. and 5% CO2.
Confluent CHO cells expressing human m1, m2, m3, m4 and m5 muscarinic receptors were harvested and resuspended in phosphate buffered saline without calcium and magnesium. The cell suspension was centrifuged at 1500×g for 3 min (4° C.). The cell pellet was homogenized in a 15 mM Tris-HCl (pH 7.5) buffer containing 2 mM MgCl2, 0.3 mM EDTA and 1 mM EGTA. The crude membrane fraction was collected by two consecutive centrifugation steps at 40,000×g for 25 min (4° C.). The final pellet was resuspended, at a protein concentration ranging from 2 to 6 mg/ml, in a 7.5 mM Tris-HCl (pH 7.5) buffer containing 12.5 mM MgCl2, 0.3 mM EDTA, 1 mM EGTA and 250 mM sucrose and stored in liquid nitrogen.
Binding assays were performed according to procedure described in: Buckley N. J., Bonner T. I., Buckley C. M., Brann M. R., Mol. Pharmacol. (1989), 35, 469-476, but with slight modifications.
Briefly, 25 to 50 μg of membrane proteins were incubated at room temperature in 1 ml of a 50 mM Tris-HCl (pH 7.4) buffer containing 2 mM of MgCl2, 0.1 nM of [^3H]-NMS (N-methylscopolamine, 85 Ci/mmol, from Apbiotech, UK) and increasing concentrations of test compound dissolved in DMSO (1% final concentration). Non specific binding was measured in the presence of 1 μM atropine. After 60 (m2) or 120 (m3) min. incubation, assays were stopped by rapid vacuum filtration of the samples through glass fiber filters (Filtermat A, Wallac, Belgium) presoaked in 0.3% polyethyleneimine for at least 2 h. Samples were further rinsed with 8 ml of ice-cold 50 mM Tris-HCl (pH 7.4) buffer. Radioactivity trapped onto the filter was counted in a Betaplate counter (Wallac). Competition binding curves were analyzed by non-linear regression with XLfit software (UDBS, UK).

Cc1c(NC2CC2)nc(C2CC2)nc1N1CCC(F)(F)CC1 [Compound 78, N,2-dicyclopropyl-6-(4,4-difluoro-1-piperidinyl)-5-methyl-4-pyrimidinamine]
Dual high affinities: PDE IV part (PDE IV): high affinities
Dual high affinities: m3 receptor part [1]: high affinities

C1CCCN(c2nc(C3CC3)nc3c2CCCN3)CC1 [Compound 155, 4-azepan-1-yl-2-cyclopropyl-5,6,7,8-tetrahydro-pyrido[2,3-d]pyrimidine]
Dual high affinities: PDE IV part (PDE IV): high affinities
Dual high affinities: m3 receptor part [1]: high affinities

CCC1CCN(c2nc(C3CC3)nc(NC3CC3)c2C)CC1 [Compound 86, N,2-dicyclopropyl-6-(4-ethyl-1-piperidinyl)-5-methyl-4-pyrimidinamine]
Dual high affinities: PDE IV part (PDE IV): high affinities
Dual high affinities: m3 receptor part [1]: high affinities

Cc1c(NC2CC2)nc(C2CC2)nc1N1CCCCC1 [Compound 175, N,2-dicyclopropyl-5-methyl-6-(1-piperidinyl)-4-pyrimidinamine]
Dual high affinities: PDE IV part (PDE IV): high affinities
Dual high affinities: m3 receptor part [1]: high affinities

Cc1c(NC2CC2)nc(C2CC2)nc1N1CC2CCC(CC2)C1 [Compound 176, 6-(3-azabicyclo[3.2.2]non-3-yl)-N,2-dicyclopropyl-5-methyl-4-pyrimidinamine]
Dual high affinities: PDE IV part (PDE IV): high affinities
Dual high affinities: m3 receptor part [1]: high affinities

C1CCCN(c2nc(C3CC3)nc3c2CCCCN3)CC1 [Compound 156, 4-azepan-1-yl-2-cyclopropyl-6,7,8,9-tetrahydro-pyrimido[4,5-b]azepine]
Dual high affinities: PDE IV part (PDE IV): high affinities
Dual high affinities: m3 receptor part [1]: high affinities

Cc1c(NC2CC2)nc(C2CC2)nc1N1CCC(C(F)(F)F)CC1 [Compound 77, N,2-dicyclopropyl-5-methyl-6-[4-(trifluoromethyl)piperidin-1-yl]-4-pyrimidinamine]
Dual high affinities: PDE IV part (PDE IV): high affinities
Dual high affinities: m3 receptor part [1]: high affinities

Cc1c(NCc2c(F)cccc2F)nc(C2CC2)nc1NC1CC1 [Compound 132, N^4,2-dicyclopropyl-N^6-(2,6-difluorobenzyl)-5-methyl-4,6-pyrimidinediamine]
Dual high affinities: PDE IV part (PDE IV): high affinities
Dual high affinities: m3 receptor part [1]: high affinities

Cc1c(N2CCCCCC2)nc(C2CC2)nc1N1CC(C)C1 [Compound 185, 1-[2-cyclopropyl-5-methyl-6-(3-methylazetidin-1-yl)pyrimidin-4-yl]azepane]
Dual high affinities: PDE IV part (PDE IV): high affinities
Dual high affinities: m3 receptor part [1]: high affinities

C=C1CCN(c2nc(C3CC3)nc(NC3CC3)c2C)CC1 [Compound 106, N,2-dicyclopropyl-5-methyl-6-(4-methylene-1-piperidinyl)-4-pyrimidinamine]
Dual high affinities: PDE IV part (PDE IV): high affinities
Dual high affinities: m3 receptor part [1]: high affinities

Nc1c(NC2CC2)nc(C2CC2)nc1N1CCCCCC1 [Compound 63, 6-(1-azepanyl)-N^4,2-dicyclopropyl-4,5-pyrimidinediamine]
Dual high affinities: PDE IV part (PDE IV): high affinities
Dual high affinities: m3 receptor part [1]: high affinities

Cc1c(NC2CC2)nc(C2CC2)nc1N1CCSCC1 [Compound 119, N,2-dicyclopropyl-5-methyl-6-(4-thiomorpholinyl)-4-pyrimidinamine]
Dual high affinities: PDE IV part (PDE IV): high affinities
Dual high affinities: m3 receptor part [1]: high affinities
